Source: ChEMBL document CHEMBL2074188, “Effects of the flavonoids biochanin A, morin, phloretin, and silymarin on P-glycoprotein-mediated transport” (J Pharmacol Exp Ther, 2003)

Legend:
Type in all cases: functional, cell-based
[1] = target: T1, ATP-dependent translocase ABCB1 (Homo sapiens, UniProt P08183); assay: TP_TRANSPORTER: cell accumulation of daunomycin in MDA435/LCC6MDR1 cells
[2] = target: T1, ATP-dependent translocase ABCB1; assay: TP_TRANSPORTER: increase in Daunomycin intracellular accumulation (Daunomycin: 0.05 uM, Morin: 50 uM) in MDA435/[…] cells
[3] = target: T1, ATP-dependent translocase ABCB1; assay: TP_TRANSPORTER: increase in Daunomycin intracellular accumulation (Daunomycin: 0.05 uM, Silymarin: 50 uM) in MDA435/LCC6 MDR1 cells; conditions: mda-mb-435/lcc6 mdr1, 50 µM
[4] = target: T1, ATP-dependent translocase ABCB1; assay: TP_TRANSPORTER: increase in Daunomycin intracellular accumulation (Daunomycin: 0.05 uM, BiochaninA: 50 uM) in MDA435/[…] cell

T1 sequence (P08183 whole entry): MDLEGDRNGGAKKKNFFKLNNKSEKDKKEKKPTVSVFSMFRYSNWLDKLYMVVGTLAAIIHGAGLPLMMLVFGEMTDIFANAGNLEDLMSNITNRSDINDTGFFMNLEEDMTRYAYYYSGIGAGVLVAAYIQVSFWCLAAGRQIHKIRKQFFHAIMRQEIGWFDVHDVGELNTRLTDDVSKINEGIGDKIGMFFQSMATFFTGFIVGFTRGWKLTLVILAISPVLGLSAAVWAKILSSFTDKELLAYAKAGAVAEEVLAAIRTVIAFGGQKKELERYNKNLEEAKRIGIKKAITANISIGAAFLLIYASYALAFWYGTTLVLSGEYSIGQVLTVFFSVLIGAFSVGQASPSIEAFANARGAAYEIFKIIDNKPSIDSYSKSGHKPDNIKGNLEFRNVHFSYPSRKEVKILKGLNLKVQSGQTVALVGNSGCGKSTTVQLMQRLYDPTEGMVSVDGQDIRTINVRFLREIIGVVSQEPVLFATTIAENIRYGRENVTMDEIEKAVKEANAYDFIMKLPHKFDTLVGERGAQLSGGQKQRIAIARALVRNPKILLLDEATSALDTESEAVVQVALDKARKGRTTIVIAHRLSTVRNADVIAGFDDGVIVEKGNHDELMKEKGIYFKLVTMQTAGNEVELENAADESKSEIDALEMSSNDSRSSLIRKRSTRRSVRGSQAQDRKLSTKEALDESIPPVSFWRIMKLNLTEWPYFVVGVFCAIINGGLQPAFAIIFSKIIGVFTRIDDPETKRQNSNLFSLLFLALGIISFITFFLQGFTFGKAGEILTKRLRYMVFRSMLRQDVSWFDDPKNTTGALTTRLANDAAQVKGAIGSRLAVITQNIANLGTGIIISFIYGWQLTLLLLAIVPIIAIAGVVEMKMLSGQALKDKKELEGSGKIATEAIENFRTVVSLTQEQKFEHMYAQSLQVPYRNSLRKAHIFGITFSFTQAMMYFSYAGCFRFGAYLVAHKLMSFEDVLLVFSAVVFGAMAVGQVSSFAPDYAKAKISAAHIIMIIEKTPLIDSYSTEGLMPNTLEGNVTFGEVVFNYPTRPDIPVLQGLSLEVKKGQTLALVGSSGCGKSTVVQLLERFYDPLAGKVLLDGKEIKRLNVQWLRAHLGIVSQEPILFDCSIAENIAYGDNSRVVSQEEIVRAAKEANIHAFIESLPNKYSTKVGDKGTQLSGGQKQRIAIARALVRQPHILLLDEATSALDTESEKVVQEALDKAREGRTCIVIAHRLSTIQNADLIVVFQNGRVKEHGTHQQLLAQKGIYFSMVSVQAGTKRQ

| Compound | Activity [1] | Activity [2] | Activity [3] | Activity [4] |
| --- | --- | --- | --- | --- |
| O=C(CCc1ccc(O)cc1)c1c(O)cc(O)cc1O [PHLORETIN] | inhibitor [+] |  |  |  |
| COc1ccc(CCN(C)CCCC(C#N)(c2ccc(OC)c(OC)c2)C(C)C)cc1OC (stereo not drawn) [VERAPAMIL] | inhibitor [+] |  |  |  |
| O=c1c(O)c(-c2ccc(O)cc2O)oc2cc(O)cc(O)c12 [MORIN] | inhibitor [+] | inhibitor [(at a rough estimate) 585 % of control] |  |  |
| SILYMARIN | inhibitor [+] |  | inhibitor [(at a rough estimate) 420 % of control] |  |
| COc1ccc(-c2coc3cc(O)cc(O)c3c2=O)cc1 [BIOCHANIN] | inhibitor [+] |  |  | inhibitor [(at a rough estimate) 645 % of control] |
